Measured values reported in patent US20220241369A1, “COMPOSITIONS AND METHODS OF MODULATING INFLAMMATION” (La Jolla Institute for Allergy and Immunology, priority 2018, published 2022).
Entries after “also recorded” stand apart in the source; their conditions may differ.

Key:
[1] = test system: OVA-induced food allergy (allergic diarrhea); assay: IgE-mediated experimental food allergy, i.g. pretreatment with HRF inhibitor before each OVA challenge; type: in vivo, mouse
Procedure: FIGS. 1A-1I show GST-N19 inhibits the development of diarrhea and intestinal mastocytosis in murine food allergy. Mice were i.p. sensitized with OVA ([…]) plus alum on days 0 and 14. From day 28, mice were i.g. challenged with OVA (50 mg) three times a week. Sensitized mice were either non-pretreated (−) or i.g. pretreated with 100 μg of GST or GST-N19 (N19). (FIG. 1A) Procedure scheme. (FIG. 1B) The development of diarrhea was monitored for 90 min after each OVA challenge. (n=5 for non-sensitized group, n=3 for inhibitor non-pretreated group, n=4 for GST group, n=6 for N19 group, data are representative of at least 3 independent experiments) Log-rank test: p=0.028 (GST vs. GST-N19), p=0.036 (control vs. GST-N19). […] (FIG. 1C-FIG. 1E) Total IgE, IgG1, HRF, and HRF-reactive IgE and IgG in sera were measured by ELISA. (FIG. 1F) Serum mMCP-1 was also measured by ELISA. (FIG. 1G) Sections of jejunum were stained with chloroacetate esterase to identify mast cells. Sections indicated by rectangles are enlarged in lower rows. Bar=100 μm in large pictures and 50 μm in insets. (FIG. 1H) Flow cytometry was performed to enumerate MMC9s (Lin^−c-Kit^+ST2^+IL-17RB^−Integrin β7^lo) in jejunum. (n=14 for non-sensitized group, n=15 for inhibitor non-pretreated group, n=9 for GST group, n=9 for GST-N19 group, pooled data of 3 independent experiments) (FIG. 1I) Cytokine mRNAs in jejunum were quantified by qRT-PCR. *, **: p<0.05, p<0.01 by ANOVA with Tukey's multiple comparison.
Mice were i.p. sensitized with OVA (50 μg/mouse) plus alum on days 0 and 14. From day 28, mice were i.g. challenged with OVA (25 or 50 mg) or PBS (control) three times a week. Before each challenge, mice were starved for 3 h, then i.g. pretreated with GST, GST-N19 (100 μg/mouse), synthetic N19 peptide, or HRF-2CA. The development of diarrhea was monitored for 90 min after OVA challenge. Diarrhea severity (30) was based on states of stool: solid (score 0), funicular (score 1), slurry (score 2), and watery (score 3).
For histologic analysis, jejunal tissue was fixed in 10% formalin. Mast cells in jejunal sections were detected by chloroacetate esterase staining. IgE, IgG, IgG1, IgG2a, mMCP-1, HRF, HRF-reactive IgE, and HRF-reactive IgG 24 h after the last OVA challenge were measured by ELISA (see Supplemental Information). Cytokine mRNAs in jejunum were quantified by qRT-PCR.
Twenty-four hours after the last OVA challenge, mice were sacrificed and small intestines (0.5-15 cm from stomach) were collected. The intestinal tissues were opened longitudinally and washed with HBSS. The washed tissues were incubated with 5 mM EDTA-HBSS for 30 min at 4° C., transferred to 30 ml HBSS in 50 ml tubes, and vigorously shaken to remove intestinal epithelial cells. The tissues were then washed with 10 ml of 10% FCS RPMI medium. Tissues were cut into tiny pieces and incubated with 2.4 mg/ml Collagenase D and 0.2 mg/ml DNase for 30 min at 37° C. Then cells were washed, resuspended in 44% Percoll solution, and slowly loaded on the top of 67% Percoll solution. The cells were centrifuged (1800 rpm, 20 min) and lymphocyte fractions were collected and used for detection of MMC9s (Lin^−c-Kit^+ST2^+IL-17RB^−Integrin β7^lo).
The cells were first incubated with 2.4G2 for 15 min at 4° C. and further incubated with Abs (PE-anti-07 integrin mAb (clone FIB504), PerCP/Cy5.5-anti-CD4 mAb (clone RM4-5), PerCP/Cy5.5-anti-CD8 mAb (clone 53-6.7), PerCP/Cy5.5-anti-CD11b mAb (clone M1/70), PerCP/Cy5.5-anti-CD11c mAb (clone N418), PerCP/Cy5.5-anti-B220 mAb (RA3-6B2), PerCP/Cy5.5-anti-Ly-6G/Ly-6C mAb (clone RB6-8C5), PerCP/Cy5.5-anti-CD335 mAb (clone 29A1.4), AlexaFluor647-anti-IL-17RB (clone 9B10), APC/Cy7-anti-CD117 (clone 2B8), Biotin-anti-ST2 (clone DIH9)) (Biolegend) for 30 min at 4° C. After washed, the cells were incubated with SA-BV421 (Biolegend) for 30 min at 4° C. MMC9 population was identified using FACS Canto. Data were analyzed using FlowJo software.

[2] = test system: sensitization phase of murine food allergy; assay: Pretreatment with HRF inhibitor before sensitization with OVA plus alum; type: in vivo, mouse; conditions: 100 μg i.g. one day before i.p. immunization on days 0 and 14
Procedure: Mice were i.g. pretreated with 100 μg of GST, GST-N19, HRF-2CA or PBS (OVA) one day before i.p. immunization with OVA plus alum on days 0 and 14. From day 28, mice were i.g. challenged with OVA three times a week. (FIG. 9A) Procedure scheme. (FIG. 9B) The development of diarrhea was monitored after OVA challenge. (n=5 for OVA, n=4 for GST, n=5 for N19, n=5 for 2CA, and n=3 each for unsensitized pretreated groups (not shown)). (FIG. 9C, FIG. 9D) Total IgE and IgG1 were measured by ELISA.
Whether HRF inhibitors affect the sensitization phase of food allergy was tested.

IgE+ mMCP-1+ mast cells = assay: Localization of gavaged HRF inhibitors in jejunum by confocal microscopy; type: in vivo, mouse
Procedure: HRF multimers in the jejunum of non-sensitized/OVA challenged (Cont, n=6) or OVA-sensitized/OVA-challenged (OVA, n=5) mice were quantified by a newly developed ELISA (FIG. 3A, FIG. 3C). HRF was also measured by ELISA (FIG. 3B). HRF dimer and monomer were quantified by western blotting in control (Cont) and food allergic mice treated without (OVA) or with GST (GST) or GST-N19 (N19) (n=5 for each group) (FIG. 3D). Allergic diarrhea was induced by 6 challenges. On the day of 7th challenge, the mice were gavaged with 0.1 mg of GST or GST-N19 (FIG. 3E). One hour later, mice were sacrificed without OVA challenge. Jejunum tissues were stained for GST, IgE, and mMCP-1 before confocal microscopy (n=5 for GST and n=6 for GST-N19). Arrows indicate cells positive for GST or GST-N19 as well as IgE and mMCP-1. […] Bars=50 μm.
Jejunum biopsy was fixed in 4% paraformaldehyde at 4° C., washed in 10-20% sucrose in phosphate buffered saline, and embedded in O.C.T. compound (Sakura Finetek, Japan). Cyrosections were made in 6 μm and blocked with 2% skim milk. Immunostaining was performed with anti-HRF (rabbit polyclonal FL-172), anti-GST (rabbit polyclonal Z-5) (Santa Cruz Biotechnology), anti-IgE (clone RME-1 from Biolegend and clone R35-72 from BD Biosciences), anti-mMCP1 (Catalog #AF5146, R&D Systems), anti-CD45 (clone 30-F11), anti-CD63 (clone NVG-2) (Biolegend), and anti-Siglec F (clone E50-2440, BD Biosciences) as primary antibodies, and anti-Rabbit Alexa Fluor 647 (Catalog #A21245), anti-Rat Alexa Fluor 568 (Catalog #A11077), and anti-Sheep Alexa Fluor 555 (Catalog #A11015) (Thermo Fisher Scientific) as secondary antibodies. Coverslips were mounted with Prolong Gold with DAPI (Thermo Fisher Scientific) and fluorescence was observed under Leica TCS SP2 confocal microscopy (Leica) and Nuance Multi spectral Imaging System (PerkinElmer).
Applicant next tested whether HRF inhibitors target mucosal mast cells. To this end, mice with allergic diarrhea were i.g. gavaged with GST-N19 or GST, and their location was identified 1 h after their gavage.

[3] = test system: CMT-93 murine intestinal epithelial cells; assay: HRF secretion into culture supernatant, western blot, CMT-93; type: cell-based, mouse; conditions: stimulated overnight, 20 or 100 ng/ml
Procedure: (§1) FIGS. 4A-4C show HRF is secreted by various cells. CMT-93 murine intestinal epithelial cells (FIG. 4A) and NIH/3T3 murine fibroblasts (FIG. 4B) and Raw264.7 murine macrophages (FIG. 4C) were stimulated overnight with low (20 ng/ml) and high (100 ng/mL) concentrations of various cytokines. HRF secreted into culture supernatants was detected by western blotting. Med and US denote medium only and supernatant from unstimulated cells, respectively. −DTT and +DTT indicate SDS gels were run under non-reducing and reducing conditions, respectively. Gel portions of containing the 23 kDa HRF monomer are shown except that a larger portion of the non-reducing gel is shown in panel C. Arrow indicates the position of HRF dimer, which disappeared under reducing conditions.
(§2) The following cell lines were cultured in DMEM plus 10% FCS except for U-937 cells which were cultured in RPMI1640 plus 10% FCS: CMT-93 mouse and Caco-2 (with 20% FCS) human intestinal epithelial cell lines; NIH/3T3 mouse fibroblast line; Raw 264.7 mouse and U-937 human macrophage lines; BEAS-2B human bronchial epithelial cell line; 293T human embryonic kidney cell line (obtained from ATCC, Manassas, Va., except for NIH/3T3, which was provided by S. A. Aaronson, NIH). Fibroblast-like stromal cells were cultured from small intestines of BALB/c mice in DMEM/10% FBS. CD4^+ T and B cells were purified from mouse spleens using BD IMag™ Mouse CD4 and B cells enrichment set-DM. Low-density bone-marrow cells were cultured in the presence of 100 ng/ml of stem cell factor (PeproTech) and 100 ng/ml of FLT-3 ligand (R&D Systems) for 4 days, and with 10 ng/mL of IL-5 (R&D Systems) thereafter for 10 days to obtain bone marrow-derived eosinophils (44). Bone marrow cells were cultured in the presence of 20 ng/ml of GM-CSF for 6 days and adherent cells were collected as bone marrow-derived macrophages. Non-adherent cells were further cultured with 5 ng/ml GM-CSF and the non-adherent cells were collected as bone marrow-derived dendritic cells. […]

[4] = test system: Raw264.7 murine macrophages; assay: HRF secretion into culture supernatant, western blot, macrophages; type: cell-based, mouse; conditions: stimulated overnight, 20 or 100 ng/ml
Procedure: as §1, §2

[5] = test system: BEAS-2B human bronchial epithelial cells; assay: HRF secretion, western blot, BEAS-2B; type: cell-based; conditions: combination of HDM and cytokine, 24 h
From the text: As lung epithelial cells are exposed to the environment, HRF secretion was studied using BEAS-2B human bronchial epithelial cells. A small amount of HRF was secreted constitutively, but house dust mite allergens induced the secretion of high-molecular-weight HRF species (HMW-HRFs). Various cytokines including epithelial derived cytokines as well as Th2 cytokines and proinflammatory cytokines further enhanced HDM-induced secretion of HMW-HRFs.
Cultured cells were scraped and treated with adenosine and ATP, which should be abundantly present in inflammatory or injured tissues. These conditions induced secretion of HRF monomer, dimer and HMW-HRFs like stimulation with HDM plus cytokines.
Culture supernatants were analyzed by SDS-PAGE under nonreducing (−DTT) and reducing (+DTT) conditions, followed by western blotting for HRF probing. HDM-induced HRF secretion was enhanced not only by Th2 cytokines (IL-4, IL-5, and IL-13), but also by epithelial derived cytokines (IL-25, IL-33, and TSLP) and proinflammatory cytokines (IL-1beta, IL-6 and TNF). med, medium alone; US, unstimulated; HDM, house dust mite; CR, cockroach; RW, ragweed; Af, Aspergillus fumigatus. Arrowhead, HRF monomer.

anti-TNP IgE C38-2 = assay: cell-based or functional assay
[6] = sensitized mice pretreated i.g. with 100 μg before each OVA challenge

Molecule: GST-N19: GST-tagged N-terminal 19 amino acids of HRF; HRF inhibitor
- serum mMCP-1 level ([1]; i.g. pretreatment before each OVA challenge, ELISA): reduced
- number of mucosal mast cells in jejunum (intestinal mastocytosis) ([1]; i.g. pretreatment before each OVA challenge, chloroacetate esterase staining): inhibits; also recorded: reduced
- MMC9s in jejunum ([1]; i.g. pretreatment, flow cytometry): reduced
- Th2 cytokine mRNAs (Il4 and Il13) in jejunum ([1]; i.g. pretreatment, qRT-PCR): repressed
- levels of total IgE, IgG1, IgG2a or HRF-reactive IgE and IgG ([1]; i.g. pretreatment, serum ELISA): not reduced
- diarrhea occurrence / incidence [1, 6]: inhibits; also recorded: reduced
- onset of diarrhea [1, 6]: delayed
- sensitization phase of murine food allergy [2]: do not affect
- targeting of mast cells in jejunum (IgE+ mMCP-1+ mast cells; after i.g. gavage): preferentially targets
- IgE+ mMCP-1+ mast cells co-localized with the substance (IgE+ mMCP-1+ mast cells; mice with allergic diarrhea, 1 h after i.g. gavage of 0.1 mg, anti-GST staining): about 65%

Molecule: IL-13: Th2 cytokine
- HRF secretion [3]: strongly induced
- HRF dimer ([4]; non-reducing gel): increased
- HDM-induced HRF secretion [5]: enhanced

Molecule: IL-6: proinflammatory cytokine
- HRF secretion [3]: strongly induced
- secretion of HRF monomer [4]: increased
- HDM-induced HRF secretion [5]: enhanced

B1: recombinant dimeric murine HRF (HRF-His6, Sephacryl fraction Fr1) (ligand)
chain: MIIYRDLISHDELFSDIYKIREIADGLCLEVEGKMVSRTEGAIDDSLIGGNASAEGPEGEGTESTVVTGVDIVMNHHLQETSFTKEAYKKYIKDYMKSLKGKLEEQKPERVKPFMTGAAEQIKHILANFNNYQFFIGENMNPDGMVALLDYREDGVTPFMIFFKDGLEMEKCHHHHHH
modifications: disulfide bond Cys172-Cys172 between the two monomers
- EC50 of antigen TNP3-BSA for IL-13 release from C38-2-sensitized mouse BMMCs in the presence of 25 µg/ml mHRF dimer (156 ng/ml for 0 µg/ml mHRF dimer) (anti-TNP IgE C38-2): 0.124 µg/mL
- EC50 of antigen TNP3-BSA for IL-13 release from C38-2-sensitized mouse BMMCs in the presence of 50 µg/ml mHRF dimer (156 ng/ml for 0 µg/ml mHRF dimer) (anti-TNP IgE C38-2): 0.092 µg/mL
